Measurements reported in the NIST ThermoML archive (doi:10.1021/acs.jced.5b00198).
Where “and” joins values, the source holds several entries; their conditions need not be identical. Identical values can stand only once. Numbers after ± are expanded uncertainties.

Assay: mn = molality of the nth substance listed, in mol/kg
Conditions: 101 kPa, Liquid; for viscosity: Capillary tube (Ostwald / Ubbelohde) method; for speed of sound: Frequency=3 MHz, Sing-around technique in a fixed-path interferometer; for mass density: Vibrating tube method

CCCC[N+](CCCC)(CCCC)CCCC.[I-] [tetrabutylammonium iodide] + O
Conditions | mass density, m1 = 0.01 [kg/m3] | mass density, m1 = 0.03 [kg/m3] | speed of sound, m1 = 0.01 [m/s] | speed of sound, m1 = 0.03 [m/s] | viscosity, m1 = 0.01 | viscosity, m1 = 0.03
288.15 K | 1001.07 ± 4 | 1002.22 ± 4 | 1468.9 ± 1.2 | 1473.6 ± 1.2 | 1.173 ± 0.015 mPa·s and 1.171 ± 0.015 mPa·s | 1.197 ± 0.015 mPa·s and 1.201 ± 0.015 mPa·s and 1.205 ± 0.015 mPa·s
293.15 K | 1000.16 ± 4 | 1001.29 ± 4 | 1484.9 ± 1.2 | 1489.1 ± 1.2 | 1.006 ± 0.013 mPa·s and 1.007 ± 0.013 mPa·s | 1.033 ± 0.014 mPa·s and 1.025 ± 0.013 mPa·s and 1.036 ± 0.014 mPa·s
298.15 K | 998.972 ± 4 | 1000.09 ± 4 | 1498.9 ± 1.2 | 1502.8 ± 1.2 | 0.861 ± 0.011 mPa·s and 0.862 ± 0.011 mPa·s | 0.883 ± 0.011 mPa·s and 0.882 ± 0.011 mPa·s and 0.884 ± 0.011 mPa·s
303.15 K | 997.53 ± 4 | 998.614 ± 4 | 1511.1 ± 1.2 | 1514.5 ± 1.2 | 0.818 ± 0.01 mPa·s and 0.817 ± 0.01 mPa·s | 0.83 ± 0.01 mPa·s and 0.828 ± 0.01 mPa·s and 0.831 ± 0.01 mPa·s
308.15 K | 995.952 ± 4 | 997.021 ± 4 | 1521.2 ± 1.2 | 1524.4 ± 1.2 | 0.731 ± 0.009 mPa·s and 0.732 ± 0.009 mPa·s | 0.739 ± 0.009 mPa·s and 0.744 ± 0.009 mPa·s
